Laboratory results published in paper PMC8582824, “Targeting DDX3X Helicase Activity with BA103 Shows Promising Therapeutic Effects in Preclinical Glioblastoma Models” (Cancers, 2021).

Key:
[1] = target: T1, DDX3X helicase activity (Homo sapiens, UniProt O00571); experiment: FRET-based DDX3X helicase assay; assay type: biochemical; settings: FRET helicase assay, recombinant DDX3X; for IC50: read-out: IC50 ± SD, DDX3X anti-enzymatic (helicase) activity
T1 construct: Recombinant his-tagged human full length DDX3X; His tag; made in house; host or cells: ShuffleT7 E. coli
T1 sequence (O00571 whole entry): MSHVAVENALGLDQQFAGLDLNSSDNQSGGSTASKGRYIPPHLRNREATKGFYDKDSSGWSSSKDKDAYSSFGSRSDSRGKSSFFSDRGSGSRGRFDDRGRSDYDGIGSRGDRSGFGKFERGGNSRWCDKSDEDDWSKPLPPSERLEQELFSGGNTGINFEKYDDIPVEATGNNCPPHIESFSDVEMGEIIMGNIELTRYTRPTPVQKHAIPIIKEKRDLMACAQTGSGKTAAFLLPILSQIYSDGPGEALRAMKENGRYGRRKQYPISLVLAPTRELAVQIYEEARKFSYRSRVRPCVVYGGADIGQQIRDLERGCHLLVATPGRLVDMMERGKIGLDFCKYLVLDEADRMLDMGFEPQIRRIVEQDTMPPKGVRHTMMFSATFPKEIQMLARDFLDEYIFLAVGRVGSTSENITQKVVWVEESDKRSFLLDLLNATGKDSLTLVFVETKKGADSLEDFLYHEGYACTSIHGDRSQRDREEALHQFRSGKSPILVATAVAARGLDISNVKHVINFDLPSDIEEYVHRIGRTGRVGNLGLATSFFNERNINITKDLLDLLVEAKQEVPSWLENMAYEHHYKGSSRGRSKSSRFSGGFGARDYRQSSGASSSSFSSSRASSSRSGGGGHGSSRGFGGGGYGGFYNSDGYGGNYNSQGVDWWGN
Description: Recombinant his-tagged human full length DDX3X cloned the E. coli expression vector pET-30a(+). ShuffleT7 E. coli cells were transformed with the plasmid and grown at 37 °C up to OD600 = 0.7. DDX3X expression was induced with 0.5 mM IPTG at 15 °C O/N. Cells were harvested by centrifugation, lysed, and the crude extract was centrifuged at 100,000 g for 60 min at 4 °C in a Beckman centrifuge before being loaded onto a FPLC Ni-NTA column (GE Healthcare, Chicago, IL, USA). The column was equilibrated in Buffer A (50 mM Tris-HCl pH 8.0, 250 mM NaCl, 25 mM Imidazole and 20% glycerol). After extensive washing in Buffer A, the column was eluted with a linear gradient in Buffer A from 25 to 250 mM Imidazole. Proteins in the eluted fractions were visualized on SDS-PAGE and tested for the presence of DDX3X by Western blot with anti-DDX3X A300-475A (Bethyl Laboratories, Montgomery, TX, USA) at 1:4000 dilution in 5% milk. Fractions containing the purest DDX3X protein were pooled and stored at −80 °C.
The dsRNA substrate for the helicase assay was prepared by hybridizing two ss RNA oligonucleotides with the following sequences: • Fluo-FAM 5′ […] 3′ • Qu-BHQ1 5′ […] 3′ • DNA capture 5′ […] 3′.
The sequence in Fluo-FAM complementary to Qu-BHQ1 is underlined. Fluo-FAM carries a 6-carboxyfluorescein fluorophore at its 3′ end, while Qu-BHQ1 carries a Black Hole quencher group at its 5′ end. The DNA capture oligonucleotide is complementary to the Qu-BHQ1 oligonucleotide, but it bears no modifications. A helicase assay using the dsRNA substrate was performed in 20 mM TrisHCl (pH 8), 70 mM KCl, 2 mM MgCl2, 2 mM dithiothreititol, 12 units RNasin (Promega), 2 mM ATP, 50 nM dsRNA, and 100 nM capture strand in 20 μL of reaction volume. The unwinding reaction was started by adding 60 pmols of DDX3X recombinant protein and carried out at 37 °C for 40 min using a LightCycler 480 (Roche, Basel, Switzerland). The fluorescence intensity was recorded every 30 s. Values of fluorescence signal in the presence or in the absence of inhibitor molecules were analyzed by linear interpolation, and the corresponding slope values were used to determine the apparent unwinding rate.
The IC50 values have been calculated from dose–response curves. Data (in triplicate) were plotted and analyzed by least-squares nonlinear regression, according to the method of Marquardt–Levenberg, with the computer program GraphPad Prism 6.0. Data were fitted to the following equation:Eobs = Emax/(1 + (IC50/[I])^n)(1) where E(obs) is the observed enzymatic activity in the presence of each inhibitor dose [I]; E(max) is the maximal enzymatic activity in the absence of the inhibitor; and n is an exponential term to take into account sigmoidal dose–response curves.
All the compounds were tested for their ability to inhibit the helicase activity of DDX3X using a fluorescence resonance energy transfer (FRET)-based assay, as previously described. Values of fluorescence signal in the presence or in the absence of inhibitor molecules were analyzed by linear interpolation (for details, see Methods 2.3.2).

[2] = target: T2, ATPase DDX3X (Homo sapiens, UniProt O00571); experiment: DDX3X ATPase activity inhibition; assay type: biochemical; settings: for IC50: >200 = less than 20% inhibition at 200 µM, highest concentration tested, read-out: ATPase DDX3X IC50 ± SD
T2 construct: Recombinant his-tagged human full length DDX3X; His tag; made in house; host or cells: ShuffleT7 E. coli
T2 sequence (O00571 whole entry): as above
Source text: To confirm the proposed mechanism of action and the selectivity of our compounds for the helicase binding site, we tested the capability of BA103 to inhibit the ATPase activity of DDX3X and the helicase activity of DDX1, which is another human member of the DEAD-box family.

[3] = system: HepG2; experiment: MTS cytotoxicity assay, HepG2 cells; assay type: cell-based; settings: HepG2, 72 h
Description: For CellTiter 96® Aqueous One Solution Cell Proliferation Assay (MTS) (Promega, Madison, WI, USA), cells were seeded at 5 × 10^3 per well in 96-well plates in quadruplicate together a control with no cells to evaluate the background. After 24 h, the culture medium was removed, and fresh medium containing increasing concentrations of chemical compounds was added to cells. The fixed final concentrations were 0.1 μM, 1 μM, 10 μM, and 100 μM. DMSO was the vehicle used for dilution of the compounds, and its final concentration on cells was less than 0.2%. Medium-only containing wells were included as controls. […] After 3 h at 37 °C in a humidified, 5% CO2 atmosphere, the absorbance at 492 nm was recorded using an EZREAD400 (Biochrom, Cambridge, United Kingdom) plate reader. The average 490 nm absorbance from the “no cell” control wells was subtracted from all other values to yield background-corrected absorbance. Dose–response curves and CC50 values have been calculated by plotting the absorbance data as a function of inhibitor concentrations and fitting the data by least-squares nonlinear regression, according to the method of Marquardt–Levenberg, with the computer program GraphPad Prism 6.0.
Cells were incubated with a scalar concentration of DDX3X inhibitors, and after 72 h of treatment, cell viability was assessed by cytotoxicity assay. […]

## CCCCc1cn(-c2ccc(NC(=O)Nc3ccccc3C(F)(F)F)cc2)nn1 [BA103, 1-(4-(4-Butyl-1H-1,2,3-triazol-1-yl)phenyl)-3-(2-(trifluoromethyl)phenyl)urea]
[1]
  IC50 ± SD, DDX3X anti-enzymatic (helicase) activity: submicromolar range
  IC50: 400 ± 50 nM
[2]
  IC50: > 200000 nM
[2]; any compound concentration
  inhibition of the ATPase activity of DDX3X: no inhibition
[3]
  CC50: low micromolar range

## CCCCc1cn(-c2ccc(NC(=O)Nc3ccccc3C)cc2)nn1 [Compound 1, reference compound]
[1]
  IC50: 300 ± 70 nM
[2]
  IC50: > 200000 nM

## CCCCc1nnc(-c2ccc(NC(=O)Nc3ccccc3C(F)(F)F)cc2)[nH]1 [Compound 4, 1-(4-(5-Butyl-4H-1,2,4-triazol-3-yl)phenyl)-3-(2-(trifluoromethyl)phenyl)urea]
[1]
  IC50 ± SD, DDX3X anti-enzymatic (helicase) activity: submicromolar range
  IC50: 70 ± 20 nM

## CCCCn1nnc(-c2ccc(NC(=O)Nc3ccccc3C(F)(F)F)cc2)n1 [Compound 6, 1-(4-(2-Butyl-2H-tetrazol-5-yl)phenyl)-3-(2-(trifluoromethyl)phenyl)urea]
[1]
  IC50 ± SD, DDX3X anti-enzymatic (helicase) activity: submicromolar range

## CC(C)CCc1cn(-c2ccc(NC(=O)Nc3cccc4cnccc34)cn2)nn1 [Compound 10, 1-(6-(4-Isopentyl-1H-1,2,3-triazol-1-yl)pyridin-3-yl)-3-(isoquinolin-5-yl)urea]
[1]
  IC50 ± SD, DDX3X anti-enzymatic (helicase) activity: submicromolar range
  IC50: 100 ± 30 nM
